Drawing on publication PMC4558116, “Inhibition of COP9-signalosome (CSN) deneddylating activity and tumor growth of diffuse large B-cell lymphomas by doxycycline” (Oncotarget, 2015), this text covers IC50 for one molecule.

The test addresses T1, CSN5 (COP-9 signalosome deneddylase subunit) (Homo sapiens, UniProt Q92905).
T1 construct: gene COPS5; purified CSN complex; with COP9 signalosome (CSN) complex; substrate Nedd8-conjugated SCF^Skp2 (Cullin-1)
The experiment in a line: fluorescence polarization deneddylation assay with purified CSN and Oregon Green-Nedd8-SCF^Skp2. Type of test: biochemical. For orientation: Polarisation of emitted light reports the rotation of a fluorescent probe.

The structures appear in SMILES notation. pIC50: −log10 of the molar value.

T1 sequence (Q92905 2-334): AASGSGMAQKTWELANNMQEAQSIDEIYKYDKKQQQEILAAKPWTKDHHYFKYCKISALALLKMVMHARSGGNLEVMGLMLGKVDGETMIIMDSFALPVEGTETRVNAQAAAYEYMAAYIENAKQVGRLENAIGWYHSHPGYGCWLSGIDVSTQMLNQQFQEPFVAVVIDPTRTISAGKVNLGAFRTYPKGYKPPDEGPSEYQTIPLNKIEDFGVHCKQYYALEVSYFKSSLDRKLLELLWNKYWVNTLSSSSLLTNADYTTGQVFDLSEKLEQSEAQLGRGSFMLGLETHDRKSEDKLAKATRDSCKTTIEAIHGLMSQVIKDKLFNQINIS

Consider `C[C@H]1c2cccc(O)c2C(=O)C2=C(O)[C@]3(O)C(=O)C(C(N)=O)=C(O)[C@@H](N(C)C)[C@@H]3[C@@H](O)[C@@H]21` [doxycycline], for which the pIC50 (commonly the IC50 on a negative log10 scale, so that one unit is a factor of ten) is around 3.96.
